Reference: US20040176422A1, “Heteroarylheteroalkylamine derivatives and their use as inhibitors of nitric oxide synthase” (priority 2001, published 2004)
Counter-ions that a name gives are not always drawn.

melting point [°C] | Structure (SMILES)
175 to 177 | Cc1ccc(C#N)c(OC(CCN)c2ccns2)n1.O=C(O)C(=O)O (stereo not drawn) [Example 22, 2-[3-Amino-1-(5-isothiazolyl)propoxy]-6-methyl-3-pyridinecarbonitrile Ethanedioate]
163 to 165 | Cc1cc([C@@H](CCN)Oc2nc(C(F)(F)F)ccc2C#N)no1 [Example 24, 2-[[(1R)-3-Amino-1-(5-methyl-3-isoxazolyl)propyl]oxy]-6-(trifluoromethyl)-3-peridinecarbonitrile Ethanedioate]
173 to 174 | COc1cc(O[C@H](CCN)c2ccon2)c(C#N)cn1.O=C(O)C(=O)O [Example 25, 4-[[(1R)-3-Amino-1-(3-isoxazolyl)propyl]oxy]-6-methoxy-3-pyridinecarbonitrile Ethanedioate]
132 to 134 | Cc1ccc(C#N)c(SC(CCN)c2nocc2C)n1.O=C(O)C(=O)O (stereo not drawn) [Example 26, 2-[[3-Amino-1-(4-methyl-3-isoxazolyl)propyl]thio]-6-methyl-3-pyridinecarbonitrile Ethanedioate]
180 to 181 | Cc1cc(SC(CCN)c2scnc2Cl)c(C#N)cn1.O=C(O)/C=C/C(=O)O (stereo not drawn) [Example 28, 4-[[3-Amino-1-(4-chloro-5-thiazolyl)propyl]thio]-6-methyl-3-pyridinecarbonitrile (E)-butenedioate]

The remaining lines, values behind:

Structure (SMILES) | melting point [°C]
COc1cc(S[C@H](CCN)c2ccno2)c(Cl)cn1 (as salt: salt) [Example 15, γ-[(5-Chloro-2-methoxy-4-pyridinyl)thio]-(γ^5R)-5-isoxazolepropanamine (E)-butenedioate] | 142 to 143
Cc1ccc(C#N)c(S[C@H](CCN)c2ccno2)n1 [Example 6, 2-[[(1R)-3-Amino-1-(5-isoxazolyl)propyl]thio-6-methyl-3-pyridinecarbonitrile Ethanedioate] | 165 to 167
N#Cc1ccc(C(F)(F)F)nc1O[C@H](CCN)c1ccon1.O=C(O)/C=C/C(=O)O [Example 11, 2-[[(1R)-3-Amino-1-(3-isoxazolyl)propyl]oxy]-6-(trifluoromethyl)-3-pyridinecarbonitrile (E)-butenedioate] | 160 to 161
Cl.N#Cc1ccc(C(F)(F)F)nc1O[C@H](CCN)c1nccs1 [Example 12, 2-[[(1R)-3-Amino-1-(2-thiazolyl)propyl]oxy]-6-(trifluoromethyl)-3-pyridinecarbonitrile Hydrochloride] | 151 to 153
N#Cc1cnc(N)cc1S[C@H](CCN)c1ccno1.O=C(O)/C=C/C(=O)O [Example 14, 6-Amino-4-[[(1R)-3-amino-1-(5-isoxazolyl)propyl]thio]-3-pyridinecarbonitrile (E)-butenedioate] | 160 to 163
COc1cc(S[C@H](CCN)c2ccno2)c(C#N)cn1.O=C(O)/C=C/C(=O)O [Example 16, 4-[[(1R)-3-Amino-1-(5-isoxazolyl)propyl]thio]-6-methoxy-3-pyridinecarbonitrile (E)-butenedioate] | 152 to 153
N#Cc1ccc(C(F)(F)F)nc1O[C@H](CCN)c1cc(Cl)no1.O=C(O)/C=C/C(=O)O [Example 18, 2-[[(1R)-3-Amino-1-(3-chloro-5-isoxazolyl)propyl]oxy]-6-(trifluoromethyl)-3-pyridinecarbonitrile (E)-butenedioate] | 151 to 152
Cc1ccc(C#N)c(S[C@H](CCN)c2cc(Cl)no2)n1.O=C(O)/C=C/C(=O)O [Example 19, 2-[[(1R)-3-Amino-1-(3-chloro-5-isoxazolyl)propyl]thio]-6-methyl-3-pyridinecarbonitrile (E)-butenedioate] | 186 to 187
Cc1ccc(C#N)c(SC(CCN)c2ccns2)n1.O=C(O)C(=O)O (stereo not drawn) [Example 21, 2-[[3-Amino-1-(5-isothiazolyl)propyl]thio]-6-methyl-3-pyridinecarbonitrile Ethanedioate] | 103 to 104
N#Cc1ccc(C(F)(F)F)nc1OC(CCCN)c1ccno1.O=C(O)/C=C/C(=O)O (stereo not drawn) [Example 42, 2-[4-Amino-1-(5-isoxazolyl)butoxy]-6-(trifluoromethyl)-3-pyridinecarbonitrile (E)-butenedioate] | 155 to 157
